Laboratory results from US10662164B2, “Non-beta lactam antibiotics” (University of Notre Dame du Lac, priority 2014, dated 2020).
In brackets after ≈: the same amount, converted by molar mass. Read-outs that look alike come from different tables or passages of the source. Marks after values point to notes of the source that are not given here. Blank lines part the entries; values can stand above or below the molecule they belong to.

Tests used:
E. faecium NCTC 7171 = assay: MIC determination; assay type: cell-based, Enterococcus faecium; details: Enterococcus faecium, NCTC7171
S. aureus ATCC 27660 [1] = assay: Mouse peritonitis model of infection; assay type: in vivo; details: po, single dose given at 1 h after infection
Procedure: Compounds 60b, 60c, 65b, 66b, 75b and 76b were evaluated in the mouse peritonitis model of infection (Table 2). We used the ICR out-bred strain of mice that provides a heterogeneous population, similar to the human situation, thus, ensuring the relevance of the antibacterial effect. This animal model of infection is widely used, it is easy to carry out, and the end points (death or survival) are rapidly assessed, making it less resource-intensive compared to other infection models. In addition, excellent correlation between MIC and ED50 has been shown for 14 β-lactam antibiotics using this model (Kratochwil et al., Biochem. Pharmacol. 2002, 64, 1355). The mouse peritonitis infection model continues to be an important model for evaluation of the efficacy of antibiotics against human pathogens. We use the iv route of administration in initial efficacy studies, as this allows us to test the efficacy without knowledge of the oral bioavailability of the lead. Evaluation was done at 20 mg/kg.
Female ICR mice (6-8 weeks old, ˜20-g body weight) were used for the PK and peritonitis studies. Animals were purchased from Harlan Laboratories, Inc. (Indianapolis, Ind., USA) and given Teklad 2019 Extruded Rodent Diet and water ad libitum. Mice were maintained in polycarbonate shoebox cages with ¼″ corncob (The Andersons Inc., Maumee, Ohio) and Alpha-dri (Sheperd Specialty Papers, Inc., Richland, Mich.) bedding under 12-h light/12-h dark cycle at 72±2° F.
The mouse peritonitis model was used with S. aureus ATCC 27660, as described previously (Tran et al., Am. J. Clin. Dermatol. 2015; doi 10.1007/S40257-015-0125-9). The final bacterial inocula contained 5×10^7 cfu/mL and 5% mucin (Sigma-Aldrich Chemical Co., St Louis, Mo., USA). Just prior to inoculation, bacteria at 10^8 cfu/mL were mixed 1:1 with 10% mucin. Mice (n=6 per group) were given 0.5 mL of the bacterial inocula intraperitoneally. Mice were given two iv doses of the compounds at 30 min and 7.5 h after infection by tail vein injection. […] Mice were monitored for 48 h, at which time the number of surviving mice were counted.
The effective dose that results in survival of 50% of the mice was determined using Probit analysis (XLSTAT, New York, N.Y.). Groups of six mice per dose level were evaluated in the mouse peritonitis infection model at iv doses of 2.5, 5, 7.5, 10, 15, and 20 mg/kg and after po doses at 2.5, 5, 10, 20, and 40 mg/kg. […]

E. faecium 106 (Van R) [2] = assay: MIC determination; assay type: cell-based; details: Enterococcus faecium
Description: (§1) The ESKAPE organisms (E. faecium NCTC (ATCC 19734), S. aureus ATCC 29213, K. pneumonia ATCC 700603, A. baumannii ATCC 17961, P. aeruginosa ATCC 17853, E. aerogenes ATCC 35029) and E. coli ATCC 25922) in the initial screen, S. aureus ATCC 27660, S. epidermis ATCC 35547, S. haemolyticus ATCC 29970, S. oralis ATCC 9811, S. pyogenes ATCC 49399, B. cereus ATCC 13061, B. licheniformis ATCC 12759, and E. faecalis ATCC 29212 were purchased from the American Type Culture Collection (Manassas, Va., USA). S. aureus strains NRS100, NRS119, NRS120, VRS1, and VRS2 were obtained from the Network on Antimicrobial Resistance in Staphylococcus aureus (Chantilly, Va., USA). E. faecalis strains 201 and 99, and E. faecium strains 119-39A and 106 were collected from Wayne State University School of Medicine.
(§2) The procedure for MIC determination was the same as previously reported (Tran et al., Am. J. Clin. Dermatol. 2015; doi 10.1007/S40257-015-0125-9).

S. aureus VRS2 = assay: MIC determination; assay type: cell-based; details: Staphylococcus aureus; vancomycin-resistant MRSA (vanA) isolate from Pennsylvania; Tables 1 and 5; read-out: MIC
Description: as §1, §2

S. aureus ATCC 27660 [3] = assay: MIC determination; assay type: cell-based; details: Staphylococcus aureus, ATCC27660; mecA positive, resistant to methicillin, oxacillin, tetracycline; Tables 1 and 5; read-out: MIC
Description: as §1, §2

S. aureus NRS100 (COL) = assay: MIC determination; assay type: cell-based; details: Staphylococcus aureus, mecA positive, resistant to methicillin, oxacillin, tetracycline, Tables 1 and 5, read-out: MIC
Description: as §1, §2

S. aureus VRS1 [4] = assay: MIC determination; assay type: cell-based; details: Staphylococcus aureus; vancomycin-resistant MRSA (vanA) isolate from Michigan; Tables 1 and 5; read-out: MIC
Description: as §1, §2

B. cereus ATCC 13061 = assay: MIC determination; assay type: cell-based; details: Bacillus cereus, ATCC13061; Tables 1 and 5; read-out: MIC
Description: as §1, §2

S. epidermis ATCC 35547 [5] = assay: MIC determination; assay type: cell-based
Description: as §1, §2

S. aureus NRS120 = assay: MIC determination; assay type: cell-based; details: Staphylococcus aureus, mecA positive, linezolid-resistant, Tables 1 and 5, read-out: MIC
Description: as §1, §2

E. faecalis ATCC 29212 = assay: MIC determination; assay type: cell-based; details: Enterococcus faecalis, ATCC29212; quality-control strain; Tables 1 and 5; read-out: MIC
Description: as §1, §2

[6] = test system: B. licheniformis ATCC 12759; assay: MIC determination; assay type: cell-based; details: Bacillus licheniformis, ATCC12759; Tables 1 and 5; read-out: MIC
Description: as §1, §2

E. faecalis 99 (Van R) = assay: MIC determination; assay type: cell-based; details: Enterococcus faecalis; vancomycin-resistant clinical isolate; Tables 1 and 5
Description: as §1, §2

E. faecalis 201 (Van S) = assay: MIC determination; assay type: cell-based; details: Enterococcus faecalis; vancomycin-susceptible clinical isolate; Tables 1 and 5; read-out: MIC
Description: as §1, §2

[7] = test system: S. haemolyticus ATCC 29970; assay: MIC determination; assay type: cell-based; details: Staphylococcus haemolyticus, ATCC29970; Tables 1 and 5; read-out: MIC
Description: as §1, §2

S. aureus NRS119 = assay: MIC determination; assay type: cell-based; details: Staphylococcus aureus, mecA positive, linezolid-resistant, Tables 1 and 5, read-out: MIC
Description: as §1, §2

S. pyogenes ATCC 49399 = assay: MIC determination; assay type: cell-based; details: Streptococcus pyogenes, ATCC49399
Description: as §1, §2

S. oralis ATCC 9811 = assay: MIC determination; assay type: cell-based; details: Streptococcus oralis, ATCC9811
Description: as §1, §2

[8] = test system: E. faecium 119-39A (Van S); assay: MIC determination; assay type: cell-based; details: Enterococcus faecium
Description: as §1, §2

S. aureus ATCC 29213 = assay: MIC determination; assay type: cell-based, Staphylococcus aureus; details: Staphylococcus aureus, ATCC29213, quality-control, methicillin-susceptible strain; Tables 1 and 5; read-out: MIC
[9] = cited from earlier work
S. epidermis ATCC 35547 [10] = details: vancomycin, data from reference 10; Table 5; cited from earlier work
[11] = test system: E. faecium 119-39A (Van S); details: vancomycin, data from reference 10; Table 5; cited from earlier work
E. faecium 106 (Van R) [12] = details: vancomycin, data from reference 10; Table 5; cited from earlier work
S. aureus VRS1 [13] = details: vancomycin, data from reference 10; Table 5; cited from earlier work
E. faecium C68 = details: vancomycin, data from reference 12; Table 5; cited from earlier work

- MIC (E. faecium NCTC 7171; Table 1, read-out: MIC): 2 µg/mL (≈ 5.93 µM)
- MIC (E. faecium 106 (Van R) [2]; vancomycin-resistant clinical isolate, Tables 1 and 5, read-out: MIC): 1 µg/mL (≈ 2.96 µM)
- MIC (S. aureus VRS2): 2 µg/mL (≈ 5.93 µM)
- MIC (S. aureus ATCC 27660 [3]): 2 µg/mL (≈ 5.93 µM)
- MIC (S. aureus NRS100 (COL)): 2 µg/mL (≈ 5.93 µM)
- MIC (S. aureus VRS1 [4]): 2 µg/mL (≈ 5.93 µM)
- MIC (B. cereus ATCC 13061): 1 µg/mL (≈ 2.96 µM)
- MIC (S. epidermis ATCC 35547 [5]; Tables 1 and 5, read-out: MIC): 1 µg/mL (≈ 2.96 µM)
- MIC (S. aureus NRS120): 32 µg/mL (≈ 94.9 µM)
- MIC (E. faecalis ATCC 29212): 2 µg/mL (≈ 5.93 µM)
- MIC [6]: 1 µg/mL (≈ 2.96 µM)
- MIC (E. faecalis 99 (Van R)): 1 µg/mL (≈ 2.96 µM)
- MIC (E. faecalis 201 (Van S)): 2 µg/mL (≈ 5.93 µM)
- MIC (S. aureus NRS119): 32 µg/mL (≈ 94.9 µM)
- MIC (S. pyogenes ATCC 49399; Table 1, read-out: MIC): 1 µg/mL (≈ 2.96 µM)
- MIC (S. oralis ATCC 9811; Table 1, read-out: MIC): 1 µg/mL (≈ 2.96 µM)
- MIC ([8]; vancomycin-susceptible clinical isolate, Tables 1 and 5, read-out: MIC): 2 µg/mL (≈ 5.93 µM)
- MIC (S. aureus ATCC 29213): 4 µg/mL (≈ 11.9 µM)
Molecule: CC(=O)NC[C@H]1CN(c2ccc(N3CCOCC3)c(F)c2)C(=O)O1 [linezolid, reference compound]
- ED50 (S. aureus ATCC 27660 [1]; Staphylococcus aureus, ATCC27660, read-out: ED50): 2.8 mg/kg
- ED50 (S. aureus ATCC 27660 [1]): 2.8 mg/kg
- MIC [7]: 2 µg/mL (≈ 5.93 µM)

Molecule: Cc1onc(-c2ccccc2)c1C(=O)N[C@@H]1C(=O)N2[C@@H]1SC(C)(C)[C@@H]2C(=O)O [oxacillin]
- Plasma protein binding [9]: > 91%

Molecule: CN[C@H](CC(C)C)C(=O)N[C@H]1C(=O)N[C@@H](CC(N)=O)C(=O)N[C@H]2C(=O)N[C@H]3C(=O)N[C@H](C(=O)N[C@H](C(=O)O)c4cc(O)cc(O)c4-c4cc3ccc4O)[C@H](O)c3ccc(c(Cl)c3)Oc3cc2cc(c3O[C@@H]2O[C@H](CO)[C@@H](O)[C@H](O)[C@H]2O[C@H]2C[C@](C)(N)[C@H](O)[C@H](C)O2)Oc2ccc(cc2Cl)[C@H]1O [vancomycin, reference compound]
- MIC (S. epidermis ATCC 35547 [10]): 16 µg/mL (≈ 11 µM)
- MIC (E. faecium NCTC 7171): 0.5 µg/mL (≈ 0.345 µM)
- MIC (E. faecium 106 (Van R) [2]): 256 µg/mL (≈ 177 µM)
- MIC (S. epidermis ATCC 35547 [5]): 16 µg/mL (≈ 11 µM)
- MIC (S. pyogenes ATCC 49399): 0.6 µg/mL (≈ 0.414 µM)
- MIC (S. oralis ATCC 9811): 0.5 µg/mL (≈ 0.345 µM)
- MIC [8]: 0.5 µg/mL (≈ 0.345 µM)
- MIC [11]: 0.5 µg/mL (≈ 0.345 µM)
- MIC (E. faecium 106 (Van R) [12]): 256 µg/mL (≈ 177 µM)
- MIC (S. aureus VRS1 [13]): 512 µg/mL (≈ 353 µM)
- MIC (E. faecium C68): 64^k μg/mL

Molecule: teicoplanin
- Plasma protein binding [9]: > 91%
